Measured values as given in PubChem BioAssay (NCI).
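Tested at 5 concentrations; 48 h exposure; 96-well plates; endpoints linearly interpolated, else capped at highest concentration. GI50 marks 50% less growth. TGI: concentration producing complete growth inhibition.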

How the values were obtained:
Assay in all cases: NCI anticancer screen, dose series, 48 h
[1] = tested on: A498 renal
[2] = tested on: A549 NSCLC
[3] = tested on: CCRF-CEM leukemia
[4] = tested on: COLO 205 colon
[5] = tested on: HL-60(TB) leukemia
[6] = tested on: HT29 colon
[7] = tested on: NCI-H23 lung
[8] = tested on: OVCAR-5 ovarian
[9] = tested on: SF-295 CNS
[10] = tested on: SK-MEL-5 melanoma

`Cc1ncc(NC(=O)c2ccc(CN3CCN(C)CC3)c(C(F)(F)F)c2)cc1Nc1nccc(-c2cccnc2)n1` was tested, and the GI50 [1] was 20.1 µM, the TGI [1] was 34.9 µM and the GI50 [2] was 16.4 µM. It also gave a TGI [2] of 31.5 µM, a GI50 [3] of 14.4 µM and a TGI [3] of 91.9 µM. The GI50 [4] was 5.55 µM, the TGI [4] was 21.6 µM and the GI50 [5] was 8.57 µM. The TGI [5] was 32.3 µM, the GI50 [6] was 2.81 µM and the TGI [6] was 21.8 µM. The GI50 [7] was 14.2 µM, the TGI [7] was 28.3 µM and the GI50 [8] was 15.8 µM. The TGI [8] was 29.7 µM, the GI50 [9] was 16.2 µM and the TGI [9] was 30 µM. For the same compound, the GI50 [10] was 16.3 µM and the TGI [10] was 30.2 µM.

In the case of `CCOC(=O)[C@@H](C)C[C@H](Cc1ccccc1)NC(=O)c1csc([C@@H](C[C@H](C(C)C)N(C)C(=O)[C@@H](NC(=O)[C@H]2CCCCN2C)C(C)(C)C)OC(C)=O)n1`, the GI50 [1] is reported as less than 0.00167 µM, the TGI [1] is reported as less than 0.00167 µM and the GI50 [2] is reported as less than 0.00167 µM. It also gave a TGI [2] greater than 16.7 µM, a GI50 [3] of less than 0.00167 µM and a TGI [3] greater than 16.7 µM. It also gave a GI50 [4] of less than 0.00167 µM, a TGI [4] of 0.00432 µM and a GI50 [5] of less than 0.00167 µM. The TGI [5] was less than 0.00167 µM, the GI50 [6] was less than 0.00167 µM and the TGI [6] was greater than 7.52 µM. The GI50 [7] was less than 0.00167 µM, the TGI [7] was greater than 16.7 µM and the GI50 [8] was less than 0.00167 µM. For the same compound, the TGI [8] was greater than 16.7 µM, the GI50 [9] was less than 0.00167 µM and the TGI [9] was 0.0918 µM. It also gave a GI50 [10] of less than 0.00167 µM and a TGI [10] of 0.00254 µM.

With `Clc1cc(Cl)c2c(Cl)cc(Cl)c3c2c1N=S=N3` the TGI [1] was greater than 100 µM, the TGI [2] was greater than 100 µM and the TGI [3] was greater than 100 µM. The TGI [4] was greater than 100 µM, the TGI [5] was greater than 100 µM and the TGI [6] was greater than 100 µM. It also gave a TGI [7] greater than 100 µM, a TGI [8] greater than 100 µM and a TGI [9] greater than 100 µM. The TGI [10] was greater than 100 µM.

For `CC(C)(C)C1(O)Cc2ccccc2C(=O)O1` (stereo not given), the TGI [1] was greater than 100 µM, the TGI [2] was greater than 100 µM and the TGI [3] was greater than 100 µM. For the same compound, the TGI [4] was greater than 100 µM, the TGI [5] was greater than 100 µM and the TGI [6] was greater than 100 µM. For the same compound, the TGI [7] was greater than 100 µM, the TGI [8] was greater than 100 µM and the TGI [9] was greater than 100 µM. It also gave a TGI [10] greater than 100 µM.

`CN1CCN(Cc2ccc(NC(=O)c3ccc(C(C)(C)C)c(C#Cc4cnc5cccnn45)c3)cc2C(F)(F)F)CC1` was tested, and the GI50 [1] was 7.18 µM, the TGI [1] was 23.4 µM and the GI50 [2] was 1.91 µM. The TGI [2] was 3.57 µM, the GI50 [3] was 1.93 µM and the TGI [3] was 4.63 µM. It also gave a GI50 [4] of 1.8 µM, a TGI [4] of 3.43 µM and a GI50 [5] of 2.62 µM. For the same compound, the TGI [5] was 6.5 µM, the GI50 [6] was 1.68 µM and the TGI [6] was 3.4 µM. It also gave a GI50 [7] of 1.85 µM, a TGI [7] of 3.89 µM and a GI50 [8] of 2.71 µM. It also gave a TGI [8] of 7.18 µM, a GI50 [9] of 1.97 µM and a TGI [9] of 3.96 µM. For the same compound, the GI50 [10] was 2.16 µM and the TGI [10] was 4.86 µM.

`C=CC(=O)N1CCN(c2ncnc3c(F)c(-c4c(O)cccc4F)c(Cl)cc23)CC1` was tested, and the GI50 [1] was 5.45 µM, the TGI [1] was 19.1 µM and the GI50 [2] was 18 µM. It also gave a TGI [2] of 40.7 µM, a GI50 [3] of 9.79 µM and a TGI [3] greater than 100 µM. For the same compound, the GI50 [4] was 17.5 µM, the TGI [4] was 37.5 µM and the GI50 [5] was 6.76 µM. It also gave a TGI [5] of 45.6 µM, a GI50 [6] of 25 µM and a TGI [6] of 77.7 µM. The GI50 [7] was 0.43 µM, the TGI [7] was 15.9 µM and the GI50 [8] was 18.4 µM. For the same compound, the TGI [8] was 34.1 µM, the GI50 [9] was 15.2 µM and the TGI [9] was 35.3 µM. It also gave a GI50 [10] of 13.6 µM and a TGI [10] of 26.5 µM.

Compound `CNc1nc(NC2CCCC2)nc(Sc2ccc(OC)cc2)n1` has a GI50 [1] greater than 10 µM, a TGI [1] greater than 10 µM and a GI50 [2] greater than 10 µM. For the same compound, the TGI [2] was greater than 10 µM, the GI50 [3] was greater than 10 µM and the TGI [3] was greater than 10 µM. For the same compound, the GI50 [4] was greater than 10 µM, the TGI [4] was greater than 10 µM and the GI50 [5] was greater than 10 µM. The TGI [5] was greater than 10 µM, the GI50 [6] was greater than 10 µM and the TGI [6] was greater than 10 µM. It also gave a GI50 [7] greater than 10 µM, a TGI [7] greater than 10 µM and a GI50 [8] greater than 10 µM. For the same compound, the TGI [8] was greater than 10 µM, the GI50 [9] was greater than 10 µM and the TGI [9] was greater than 10 µM. For the same compound, the GI50 [10] was greater than 10 µM and the TGI [10] was greater than 10 µM.

`NS(=O)(=O)c1ccc(NC(=O)c2cccc3c(=O)c4ccccc4[nH]c23)cc1` showed a TGI [1] greater than 100 µM, a TGI [2] greater than 100 µM and a TGI [3] greater than 100 µM. The TGI [4] was greater than 100 µM, the TGI [5] was greater than 100 µM and the TGI [6] was greater than 100 µM. It also gave a TGI [7] greater than 100 µM, a TGI [8] greater than 100 µM and a TGI [9] greater than 100 µM. The TGI [10] was greater than 100 µM.

Compound `CC1CCCC(C(=O)/C(=C/c2cccc(Cl)c2)C(=O)C(=O)O)C1` (stereo not given) has a TGI [1] greater than 100 µM, a TGI [2] greater than 100 µM and a TGI [3] of 48.3 µM. It also gave a TGI [4] greater than 100 µM, a TGI [5] of 47.9 µM and a TGI [6] of 38.1 µM. The TGI [7] was greater than 100 µM, the TGI [8] was greater than 100 µM and the TGI [9] was greater than 100 µM. The TGI [10] was greater than 100 µM.

With `N#Cc1c(-c2ccccc2)nc2c(c(-c3ccccc3)nn2-c2ccccc2)c1-c1ccc(O)cc1` the GI50 [1] was 1.66 µM, the TGI [1] was 3.07 µM and the GI50 [2] was 2.57 µM. It also gave a TGI [2] of 6.87 µM, a GI50 [3] of 3.13 µM and a TGI [3] of 13.4 µM. For the same compound, the GI50 [4] was 2.61 µM, the TGI [4] was 6.31 µM and the GI50 [5] was 3.52 µM. The TGI [5] was 23.7 µM, the GI50 [6] was 2.51 µM and the TGI [6] was 6.44 µM. It also gave a GI50 [7] of 1.78 µM, a TGI [7] of 3.84 µM and a GI50 [8] of 1.75 µM. It also gave a TGI [8] of 3.41 µM, a GI50 [9] of 1.88 µM and a TGI [9] of 4.29 µM. The GI50 [10] was 1.76 µM and the TGI [10] was 3.19 µM.

`COc1ccc2c(c1)[C@@]13CCN4CC5=CCO[C@H]6CC(=O)N2[C@H]1[C@H]6[C@H]5C[C@H]43` showed a TGI [1] greater than 100 µM, a TGI [2] greater than 100 µM and a TGI [3] greater than 100 µM. It also gave a TGI [4] greater than 100 µM, a TGI [5] greater than 100 µM and a TGI [6] greater than 100 µM. The TGI [7] was greater than 100 µM, the TGI [8] was greater than 100 µM and the TGI [9] was greater than 100 µM. It also gave a TGI [10] greater than 100 µM.

With `Oc1c(Br)cc(CN(Cc2cc(Br)c(O)c(Br)c2)C2CCCCC2)cc1Br` the TGI [1] was greater than 100 µM, the TGI [2] was greater than 100 µM and the TGI [3] was greater than 100 µM. The TGI [4] was greater than 100 µM, the TGI [5] was greater than 100 µM and the TGI [6] was greater than 100 µM. For the same compound, the TGI [7] was greater than 100 µM, the TGI [8] was greater than 100 µM and the TGI [9] was greater than 100 µM. The TGI [10] was greater than 100 µM.

`N#Cc1c(N)c(C(=O)O)nn(-c2cccc(C(F)(F)F)c2)c1=O` showed a TGI [1] greater than 100 µM, a TGI [2] greater than 100 µM and a TGI [3] greater than 100 µM. It also gave a TGI [4] greater than 100 µM, a TGI [5] greater than 100 µM and a TGI [6] greater than 100 µM. For the same compound, the TGI [7] was greater than 100 µM, the TGI [8] was greater than 100 µM and the TGI [9] was greater than 100 µM. It also gave a TGI [10] greater than 100 µM.

Work on `CCCCCCNc1nc(NCCCCCC)c2[nH]c(NCCCCCC)nc2n1` yielded a GI50 [1] of 1.2 µM, a TGI [1] of 10.5 µM and a GI50 [2] of 1.58 µM. The TGI [2] was 14.8 µM, the GI50 [3] was 4.95 µM and the TGI [3] was 35.6 µM. The GI50 [4] was 1.32 µM, the TGI [4] was 2.76 µM and the GI50 [5] was 1.58 µM. It also gave a TGI [5] of 4.22 µM, a GI50 [6] of 5.59 µM and a TGI [6] of 18.8 µM. The GI50 [7] was 8.77 µM, the TGI [7] was 23.3 µM and the GI50 [8] was 9.31 µM. It also gave a TGI [8] of 24.7 µM, a GI50 [9] of 12.8 µM and a TGI [9] of 31.3 µM. The GI50 [10] was 12.7 µM and the TGI [10] was 25.2 µM.

With `C=C1C(=O)O[C@H]2[C@H]1CC/C(COC(=O)c1cc3cc(OC)ccc3[nH]1)=C\CC[C@@]1(C)O[C@@H]21` the GI50 [1] was 1.63 µM, the TGI [1] was 3.04 µM and the GI50 [2] was 1.66 µM. For the same compound, the TGI [2] was 3.38 µM, the GI50 [3] was 0.348 µM and the TGI [3] was 1.57 µM. The GI50 [4] was 1.18 µM, the TGI [4] was 2.72 µM and the GI50 [5] was 0.326 µM. The TGI [5] was 2.08 µM, the GI50 [6] was 0.351 µM and the TGI [6] was 1.47 µM. It also gave a GI50 [7] of 1.49 µM, a TGI [7] of 2.97 µM and a GI50 [8] of 1.77 µM. For the same compound, the TGI [8] was 3.76 µM, the GI50 [9] was 2.42 µM and the TGI [9] was 10.8 µM. For the same compound, the GI50 [10] was 1.74 µM and the TGI [10] was 3.17 µM.
